Data reported in patent US20040116297A1, “Use of polyprenol and its derivatives for facilitating growth of plants” (priority 2001, published 2004).

Experiments:
corn = assay: Effect on growth of corn; type: in vivo; details: for Early plant height / Fresh weight / Tiller number: corn seeds immersed 2 hrs at 100 ppm, after 60 days; for Rate of increase of early plant height / Rate of increase of fresh weight / Rate of increase of tiller number: corn, 100 ppm, vs control
Procedure: [Worded in the source for another target; used here, by the source, with some conditions changed.] (§1) Then, the treated seeds were dried for 24 hrs at 25° C. Round pots of 25 cm in diameter (7 L capacity) were filled with soil for horticulture, and 50 pots (2 seeds per pot) were sown. After 60 days at about 25° C., the crop growth was evaluated by rate of emergence and early plant height. […] As a control, bean seeds which were not immersed in the polyprenol preparation were used.

radish = details: cited from earlier work
rice = details: depending on the plant breeding; cited from earlier work
cabbage = details: cited from earlier work
red pepper = assay: Effect on growth of red pepper; type: in vivo; details: 100 ppm
Procedure: [Worded in the source for another target; used here, by the source, with some conditions changed.] as §1

bean = assay: Effect on growth of bean; type: in vivo
Procedure: (§2) 100 g of bean seeds were immersed in a 100 ml solution containing the polyprenol preparation formulated in Example 3 at a concentration of 100 ppm, for 1 hr. Then, the treated seeds were dried for 24 hrs at 25° C. Round pots of 25 cm in diameter (7 L capacity) were filled with soil for horticulture, and 50 pots (2 seeds per pot) were sown. After 60 days at about 25° C., the crop growth was evaluated by rate of emergence and early plant height. The test was repeated 3 times, and the average values are represented in Table 7. As a control, bean seeds which were not immersed in the polyprenol preparation were used.
In example 4, the compound having chloride group instead of hydroxyl group can be synthesized. The compound was evaluated on effect on crop growth. 100 g of bean seeds were immersed in a 100 ml solution containing the polyprenol preparation formulated in Example 4 at a concentration of 100 ppm, for 1 hr. Then, the treated seeds were dried for 24 hrs. Round pots of 25 cm in diameter (7 L capacity) were filled with soil for horticulture, and 50 pots (2 seeds per pot) were sown. After 60 days, the crop growth was evaluated. The test was repeated 3 times, and the average values are represented in Table 14. As a control, bean seeds which were not immersed in the polyprenol preparation were used.
as §2, with “Example 5” for “Example 3”, “24 hrs.” for “24 hrs at 25° C.”, “60 days,” for “60 days at about 25° C.,”, “was evaluated.” for “was evaluated by rate of emergence and early plant height.”, “Table 16.” for “Table 7.”

[1] = foliage treatment after growing for 20 days
[2] = bean seeds immersed 1 hr at 100 ppm, after 60 days

| Compound | Early plant height (corn) [cm] | Fresh weight (corn) [g] | Tiller number (corn) | Rate of increase of early plant height (corn) [%] | Rate of increase of fresh weight (corn) [%] | Rate of increase of tiller number (corn) [%] | further results |
| --- | --- | --- | --- | --- | --- | --- | --- |
| Polyprenyl Methyl Sulfide [Example 6-5] | 108.9 | 65.7 | 8.5 | 0.2 | 26.3 | 3.6 | – |
| polyprepyl dimethyl sulfonium bromide [Example 6-7] | 109.5 | 70.1 | 9.2 | 0.8 | 34.8 | 12.1 | – |
| CCCCCCCCCCCCCCCCCCCCCCCCCCCCCCO [tricontanol] | – | – | – | – | – | – | Increase of yield (radish): 108.4%; Increase of yield (rice): 14.8-41%; Increase of yield (cabbage): 83% |
| Polyprenyl Stearate [Example 6-3] | 109.1 | 68.0 | 8.6 | 0.4 | 30.7 | 4.8 | – |
| Polyprenyl Methyl Ether [Example 6-4] | 110.1 | 60.3 | 8.7 | 1.3 | 15.9 | 6.0 | – |
| Polyprenol of Formula I, in which m is 18 [Example 4] | – | – | – | – | – | – | Early plant length (red pepper; [1]): 70.5 cm; Flower number (red pepper; [1]): 8.4; Trunk diameter (red pepper; [1]): 8.5 mm; Rate of increase of early plant length (red pepper; vs control): 11.7%; Rate of increase of flower number (red pepper; vs control): 10.5%; Rate of increase of trunk diameter (red pepper; vs control): 1.2%; Early plant height (bean; [2]): 68.2 cm; No. of pods (bean; [2]): 35.4; Rate of emergence (bean; [2]): 55.7%; Increase of all factors tested (early plant height, rate of emergence, pod number) (bean; bean, 100 ppm, summary statement): more than 7%; Rate of increase of No. of pods (bean; bean, 100 ppm, vs control): 17.2%; Rate of increase of early plant height (bean; bean, 100 ppm, vs control): 7.74%; Rate of increase of rate of emergence (bean; bean, 100 ppm, vs control): 7.32% |
| polyprenyl ethyl carbonate [Example 6-6] | 109.6 | 61.3 | 8.4 | 0.9 | 17.8 | 2.4 | – |
